Like-named read-outs stand apart in the source and are kept apart here.
Experiments:
[1] = biological target: T1, CSNK2a1 (Homo sapiens, UniProt P68400); experiment: KINOMEscan; type: binding; details: read-out: Remaining enzyme activity
T1 construct: purchased Ambit (DiscoverX) KINOMEscan; Cerep
Method in brief: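 Each kinase, tagged with DNA, is partitioned between test compound and an immobilized active-site ligand; qPCR of the eluate reports the bound fraction. SC81458 dosed once, 10 μM final concentration.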

[2] = PK study; type: in vivo, cynomolgus; details: for half-life: 2 mg/kg
Protocol: (§1) On the treatment day, all animals were weighed and the dosing volume was calculated for each individual animal according to its actual body weight. All animal were dosed once. Blood samples were taken at different time points and plasma was collected after centrifugation (10,000g, 10 min, 4 °C). Plasma samples were analysed by LC–MS/MS. […] All relevant observations were recorded. The PK studies in cynomolgus monkeys and beagle dogs were performed by the Laboratory of Pharmacology and Toxicology (LPT), Hamburg, and PK and toxicity studies in mice and rats were performed by the 4SC Discovery GmbH, Munich. PK parameters were obtained by a non-compartment analysis, using Kinetica 4.1 (Thermo Scientific).

[3] = PK study; type: in vivo, rat; details: rat i.v. 2 mg kg^−1; for half-life: rat, 2 mg/kg
Protocol: as §1

[4] = cynomolgus monkey, plasma, iv, cynomolgus i.v. 2 mg kg^−1

T1 sequence (P68400 whole entry): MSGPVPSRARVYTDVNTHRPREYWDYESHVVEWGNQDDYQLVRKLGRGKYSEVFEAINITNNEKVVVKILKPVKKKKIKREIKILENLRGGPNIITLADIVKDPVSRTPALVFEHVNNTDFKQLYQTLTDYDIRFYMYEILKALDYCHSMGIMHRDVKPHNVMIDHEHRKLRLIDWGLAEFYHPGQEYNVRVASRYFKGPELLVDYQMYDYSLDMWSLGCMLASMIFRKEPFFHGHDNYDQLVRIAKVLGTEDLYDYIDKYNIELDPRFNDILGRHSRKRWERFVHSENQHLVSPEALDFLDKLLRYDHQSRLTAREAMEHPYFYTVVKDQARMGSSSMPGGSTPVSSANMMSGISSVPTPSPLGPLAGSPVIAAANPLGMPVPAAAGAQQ

## CCCCN1CCN(C(=N)c2cccc(NC(=O)Nc3ccc(S(=O)(=O)NCc4ccc(S(N)(=O)=O)cc4)cc3)c2)CC1 [SC81458, 4-(3-(3-((4-butylpiperazin-1-yl)(imino)methyl)phenyl)ureido)-N-(4-sulfamoylbenzyl) benzenesulfonamide]
[1]
  remaining binding at 10 µM: 62%

## COC(=O)N1CCN(C(=N)c2cccc(NC(=O)Nc3ccc(S(=O)(=O)NCc4ccc(S(N)(=O)=O)cc4)cc3)c2)CC1 [SC83288, methyl 4-(imino(3-(3-(4-(N-(4-sulfamoylbenzyl)sulfamoyl)phenyl)ureido)phenyl)methyl) piperazine-1-carboxylate]
[2]; cynomolgus monkey, plasma, iv, cynomolgus i.v. 2 mg kg^−1, read-out: t1/2 effective
  half-life: 62 min
[2]; cynomolgus monkey, plasma, iv, cynomolgus i.v. 2 mg kg^−1, read-out: t1/2 initial
  half-life: 16 min
[2]; cynomolgus monkey, plasma, iv, cynomolgus i.v. 2 mg kg^−1, read-out: t1/2 terminal
  half-life: 320 min
[2]; [4]
  AUC(0-inf): 4250 ng·h/mL
  C0: 7340 ng/mL
  Cmax: 6570 ng/mL
  Tmax: 5 min
  clearance: 7.83 mL/min/kg
[2]; cynomolgus monkey, plasma, iv, cynomolgus i.v. 2 mg kg^−1, read-out: MRT0-t
  MRT last: 90 min
[2]; cynomolgus, i.v. 2 mg kg^−1
  C0 as multiple of the free MPC: ~17 times
  VC: 0.273 L/kg
[3]; plasma, iv
  AUC(0-inf): 1420 ng·h/mL
  C0: 4380 ng/mL
  Cmax: 3280 ng/mL
  Tmax: 5 min
  clearance: 23.5 mL/min/kg
[3]; plasma, iv, read-out: MRT0-t
  MRT last: 75 min
[3]
  VC: 0.457 L/kg
[3]; plasma, iv, read-out: t1/2 effective
  half-life: 52 min
[3]; plasma, iv, read-out: t1/2 initial
  half-life: 9 min
[3]; plasma, iv, read-out: t1/2 terminal
  half-life: 625 min

From publication PMC5290327, “SC83288 is a clinical development candidate for the treatment of severe malaria” (Nature Communications, 2017)
